This is an account of results in ChEMBL document CHEMBL1145136, “Molecular determinants of steroid inhibition for the mouse constitutive androstane receptor” (J Med Chem, 2003).

For the first data set, the target named is T1, mouse constitutive androstane receptor (mCAR, NR1I3) (Mus musculus, UniProt O35627).
T1 sequence (O35627 whole entry): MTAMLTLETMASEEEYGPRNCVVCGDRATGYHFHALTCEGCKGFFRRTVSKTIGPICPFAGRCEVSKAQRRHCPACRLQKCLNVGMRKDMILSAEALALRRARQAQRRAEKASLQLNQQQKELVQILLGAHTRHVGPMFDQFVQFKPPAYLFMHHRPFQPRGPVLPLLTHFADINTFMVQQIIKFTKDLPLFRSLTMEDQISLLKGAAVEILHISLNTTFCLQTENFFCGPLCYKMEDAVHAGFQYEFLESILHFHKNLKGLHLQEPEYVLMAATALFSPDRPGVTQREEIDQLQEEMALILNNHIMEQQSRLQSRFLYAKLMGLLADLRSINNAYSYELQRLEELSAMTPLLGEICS
The data set can be described thus: Inhibition of mouse constitutive androstane receptor (mCAR) activity at 10 uM was determined as percent remaining activity. As to conditions: read-out: Remaining activity.
Regarding `CC12CCC3C(CCC4=CC(=O)[C@H](O)CC43C)C1CCC2=O` (stereo partly specified), the activity at 10 µM came out at 41%.

Turning to `CC12C=CCC1C1CCC3=CC(=O)CCC3(C)C1CC2` (stereo unspecified), the activity at 10 µM is 7%.

For `CC12CCC3C(C1CCC2=O)[C@H](O)CC1=CC(=O)CCC13C` (stereo partly specified), the activity at 10 µM was 97%.

With `CC12CCC3C(CC[C@H]4CC=CCC34C)C1CCC2=O` (stereo partly specified), the activity at 10 µM amounted to 42%.

As for `CC12C=CCC1C1CC[C@H]3C[C@H](O)CCC3(C)C1CC2` (stereo partly specified), the activity at 10 µM amounted to 4%.

For `CC12C=CCC1C1CC[C@H]3CC(=O)CCC3(C)C1CC2` (stereo partly specified), the activity at 10 µM worked out at 5%.

Consider `CC12CCC3C(C[C@@H](O)C4=CC(=O)CCC43C)C1CCC2=O` (stereo partly specified), for which the activity at 10 µM stood at 89%.

For the molecule `CC12CCC3C(CCC4=C[C@H](O)CCC43C)C1CCC2=O` (stereo partly specified), the activity at 10 µM was 66%.

Regarding `CC12CCC(=O)C=C1CCC1C2CCC2(C)C1CC[C@@H]2C(=O)O` (stereo partly specified), the activity at 10 µM was found to be 81%.

For `CC12CCC3C(CCC4=CC(=O)CCC43C)C1C[C@@H](O)C2=O` (stereo partly specified), the activity at 10 µM amounted to 62%.

Regarding `C[C@]12CCC(=O)C=C1CC[C@@H]1[C@@H]2[C@@H](O)C[C@]2(C)C(=O)CC[C@@H]12`, the activity at 10 µM was 83%.

For `C[C@@]12CCC[C@H]1[C@@H]1CC[C@H]3C[C@H](O)CC[C@]3(C)[C@H]1CC2`, the activity at 10 µM is 4%.

On to `C[C@@]12CCC[C@H]1[C@@H]1CC[C@@H]3C[C@H](O)CC[C@]3(C)[C@H]1CC2`, for which the activity at 10 µM worked out at 4%.

For `C[C@@]12CCC[C@H]1[C@@H]1CCc3cc(O)ccc3[C@H]1CC2`, the activity at 10 µM stood at 56%.

Take `CC12CC[C@H]3[C@@H](CC[C@H]4CC(=O)CCC43C)[C@@H]1CCC2=O` (stereo partly specified): the activity at 10 µM turned out to be 34%.

Regarding `CC12CC[C@@H]3C4CC[C@@H](O)C[C@@H]4CC[C@H]3[C@@H]1CCC2=O` (stereo partly specified), the activity at 10 µM came to 91%.

Take `CC12CC[C@@H]3C4CCC(=O)C[C@@H]4CC[C@H]3[C@@H]1CCC2=O` (stereo partly specified): the activity at 10 µM came out at 80%.

Take `CC12CC[C@H]3[C@@H](CC[C@@H]4CCCCC43C)[C@@H]1CCC2=O` (stereo partly specified): the activity at 10 µM came out at 45%.

For the molecule `CCC1CC[C@H]2[C@@H]3CC[C@H]4CC(=O)CCC4(C)[C@H]3CCC12C` (stereo partly specified), the activity at 10 µM came out at 52%.

Regarding `CC12CCC(=O)C[C@@H]1CC[C@@H]1[C@@H]2CCC2(C)[C@@H](O)CC[C@@H]12` (stereo partly specified), the activity at 10 µM came out at 53%.

Turning to `CC12CCC[C@H]1[C@@H]1CC[C@H]3CC(=O)CCC3(C)[C@H]1CC2` (stereo partly specified), the activity at 10 µM stood at 12%.

With `CC12CC[C@@H](O)C[C@@H]1CC[C@@H]1[C@@H]2CCC2(C)[C@@H](O)CC[C@@H]12` (stereo partly specified), the activity at 10 µM amounted to 63%.

For `CC12CCC3C(CC[C@H]4CC(=O)C=CC34C)C1CCC2=O` (stereo partly specified), the activity at 10 µM was 90%.

`CC12CCC3C(C[C@H](O)C4=CC(=O)CCC43C)C1CCC2=O` (stereo partly specified): the activity at 10 µM was 81%.

For `CC12C=CCC1C1CC[C@H]3C[C@@H](O)CCC3(C)C1CC2` (stereo partly specified), the activity at 10 µM came to 28%.

On to `CC(=O)[C@H]1CC[C@H]2[C@@H]3CC[C@H]4CC(=O)CC[C@]4(C)[C@H]3CC[C@]12C`, for which the activity at 10 µM stood at 73%.

As for `CC(=O)[C@H]1CC[C@H]2[C@@H]3CC[C@@H]4CC(=O)CC[C@]4(C)[C@H]3CC[C@]12C`, the activity at 10 µM was determined as 20%.

In the case of `C[C@]12CCC(=O)C=C1CCC1[C@@H]2C(=O)C[C@@]2(C)[C@H]1CC[C@]2(O)C(=O)CO` (single isomer, unassigned) [CORTISONE], the activity at 10 µM stood at 80%.

As for `C[C@]12CCC(=O)C=C1CCC1[C@@H]2[C@@H](O)C[C@@]2(C)[C@H]1CC[C@]2(O)C(=O)CO` (single isomer, unassigned) [HYDROCORTISONE], the activity at 10 µM is 68%.

As for `C[C@]12CCC(=O)C=C1CC[C@@H]1[C@@H]2CC[C@]2(C)C(=O)CC[C@@H]12` [ANDROSTENEDIONE], the activity at 10 µM turned out to be 56%.

In the case of `C[C@]12C=CC(=O)C=C1CC[C@@H]1[C@@H]2CC[C@]2(C)C(=O)CC[C@@H]12` [ANDROSTENEDONE], the activity at 10 µM turned out to be 89%.

As for `CC(=O)[C@H]1CC[C@H]2[C@@H]3CC[C@H]4C[C@H](O)CC[C@]4(C)[C@H]3CC[C@]12C` [BREXANOLONE], the activity at 10 µM came out at 19%.

Consider `C[C@]12C[C@H](O)[C@H]3[C@@H](CCC4=CC(=O)CC[C@@]43C)[C@@H]1CC[C@@H]2C(=O)CO` [CORTICOSTERONE], for which the activity at 10 µM stood at 80%.

For `C[C@]12CC[C@H]3[C@@H](CCC4=CC(=O)CC[C@@]43C)[C@@H]1CC[C@@H]2C(=O)CO` [DESOXYCORTICOSTERONE], the activity at 10 µM amounted to 58%.

In the case of `C[C@@H]1C[C@H]2[C@@H]3CCC4=CC(=O)C=C[C@]4(C)[C@@]3(F)[C@@H](O)C[C@]2(C)[C@@]1(O)C(=O)CO` [DEXAMETHASONE], the activity at 10 µM stood at 75%.

Take `C[C@]12CC[C@H]3[C@@H](CCC4=CC(=O)CC[C@@]43C)[C@@H]1CC[C@H]2O` [EPITESTOSTERONE]: the activity at 10 µM is 73%.

On to `C[C@]12CCC(=O)C(O)=C1CC[C@@H]1[C@@H]2CC[C@]2(C)C(=O)CC[C@@H]12` [FORMESTANE], for which the activity at 10 µM stood at 53%.

Regarding `C[C@]12CC[C@H](O)CC1=CC[C@@H]1[C@@H]2CC[C@]2(C)C(=O)CC[C@@H]12` [PRASTERONE], the activity at 10 µM is 71%.

For the molecule `CC(=O)[C@H]1CC[C@H]2[C@@H]3CC=C4C[C@@H](O)CC[C@]4(C)[C@H]3CC[C@]12C` [PREGNENOLONE], the activity at 10 µM is 95%.

On to `C[C@]12CCC(=O)C[C@@H]1CC[C@@H]1[C@@H]2CC[C@]2(C)[C@@H](O)CC[C@@H]12` [STANOLONE], for which the activity at 10 µM is 69%.

For the molecule `C[C@]12CC[C@H]3[C@@H](CCC4=CC(=O)CC[C@@]43C)[C@@H]1CC[C@@H]2O` [TESTOSTERONE], the activity at 10 µM was determined as 78%.

The next data set concerns the target T2, Nuclear receptor subfamily 1 group I member 3 (Mus musculus, UniProt O35627).
T2 sequence (O35627 whole entry): T1 sequence (O35627 whole entry)
Description: Inhibitory concentration against mammalian m-constitutive androstane receptor (mCAR) activity.
Settings: not given
In general, IC50 refers to the concentration needed to halve the response being measured. A higher IC50 goes with lower potency. `C[C@]12CC[C@@H](O)C[C@@H]1CC[C@@H]1[C@@H]2CC[C@]2(C)C=CC[C@@H]12` [ANDROSTENOL] registered an IC50 of 0.25 µM.

For `C[C@]12CC[C@H]3[C@@H](CCC4=CC(=O)CC[C@@]43C)[C@@H]1CC[C@@H]2O` [TESTOSTERONE], 30 µM corresponded to half-maximal inhibition (IC50).

The target of the next data set is T2, Nuclear receptor subfamily 1 group I member 3. Description: Inhibitory concentration against mouse constitutive androstane receptor (mCAR) activity was determined as pIC50.
Settings: not given
As to `CC12C=CCC1C1CCC3=CC(=O)CCC3(C)C1CC2` (stereo unspecified), half-maximal inhibition (IC50) required 0.794 µM.

As to `CC12CCC(=O)C=C1CCC1C2CCC2(C)C1CC[C@@H]2C(=O)O` (stereo partly specified), the IC50 is 39.8 µM.

Regarding `CC12CC[C@H]3[C@@H](CC[C@H]4CC(=O)CCC43C)[C@@H]1CCC2=O` (stereo partly specified), 5.01 µM corresponded to half-maximal inhibition (IC50).
